Test results taken from patent US6274568A, “Compounds for altering cell surface sialic acids and methods of use therefor” (priority 1999, dated 2001).

What was measured:
MAG-Fc chimera = experiment: MAG-Fc binding to precursor-treated NG108-15 cells by flow cytometry; format: cell-based
Experimental: Flow cytometry was used to test binding of a soluble MAG-Fc chimera to precursor-treated and control NG108-15 cells. A chimeric protein consisting of the entire extracellular domain of MAG fused via a three amino acid bridge (TGK) to the human Fc domain was produced using the "pIgPlus" vector (Novagen, Madison, Wis.). A PCR fragment coding for the extracellular domain of MAG was prepared using MAG in pCDM8 as template (Yang et al., 1996a), the T7 5' primer […] (SEQ ID NO:1) and […] (SEQ ID NO:2) as the 3' primer. The fragment was cut with BamHI and HindIII and directionally cloned into the pIgPlus vector. The resulting construct was sequenced to confirm its identity, transfected into COS cells, and the resulting MAG-Fc chimera was purified from the culture medium using Protein G affinity chromatography.
For MAG binding studies, NG108-15 cells were cultured in the presence of sialic acid precursors for the indicated times, then were released from culture dishes using hypertonic Ca^2+ /Mg^2+ -free phosphate-buffered saline (Yang et al., Proc. Natl. Acad. Sci. USA., 93:814, 1996) and resuspended (at […]) in 25 mM Hepes-buffered Hanks balanced salt solution (Bashor, Methods Enzymol., 58:119, 1979) containing 5 mg/ml bovine serum albumin. MAG-Fc (6 μg) was added to 100 μl of the same buffer containing 6 μg fluorescein isothiocyanate-labeled goat anti-human Fc (Jackson Immunoresearch, West Grove, Pa.) and incubated on ice for 1 h 45 min with frequent mixing. Cell suspension (100 μl containing 50,000 cells) was added to the premixed antibody solution and the mixture incubated on ice for 45 min. The cells were then centrifuged for 4 sec at 16,000×g and washed three times by resuspension in 200 μl of buffer with bovine serum albumin and centrifugation. The resulting cell pellet was resuspended in 100 μl buffer with bovine serum albumin and flow cytometry was performed on an Epics Profile II cytometer (Coulter Corp, Hialeah, Fla.).
NG108-15 cells, a mouse neuroblastoma/rat glioma hybrid, display many qualities of cholinergic neurons, including neurite outgrowth, synthesis, storage and release of acetylcholine, and functional synapse formation with muscle cells in vitro. Neurite outgrowth from NG108-15 cells is inhibited by MAG (McKerracher et al., Neuron, 13:805, 1994), an interaction which is reversed by pretreatment of the cells with neuraminidase (Schnaar et al., Ann. N.Y. Acad. Sci., 845:92, 1998). […] Binding was quantified by flow cytometry. […]

NG108-15 cells = experiment: O-acetylation state of NeuGc in ManNGcPA-treated NG108-15 cells, thin layer chromatography; format: cell-based, mouse neuroblastoma/rat glioma hybrid; conditions: 1 mM, 48 h
Experimental: O-Acetylated sialic acids from bovine submaxillary mucin served as standards. […] A portion of the organic/aqueous soluble pool (predominantly free sialic acids) was subjected to silicic acid thin layer chromatography using propanol-water (1:1) as developing solvent and resorcinol reagent for detection. Sialic acids released from bovine submaxillary mucin, which contain primarily O-acetylated forms of NeuAc (as well as NeuAc, NeuGc, and O-acetylated forms of NeuGc) were prepared and used as positive controls. Lane 1, bovine submaxillary mucin sialic acids; Lane 2, mucin sialic acids pretreated with concentrated ammonium hydroxide for 2 h at ambient temperature to selectively deplete O-acetyl groups; Lane 3, NeuAc standard; Lane 4, NeuGc standard; Lane 5, extract from ManNGcPA-treated NG108-15 cells. O-Acetylated forms of NeuGc, which are reported to migrate 60-100% farther than the parent NeuGc in this system, appear to be absent from the cell extract.

in vitro = conditions: ng108-15 cells
Experimental: Cell growth rates were determined in control cultures (.box-solid.), in cultures treated with 0.08 mM (.circle-solid.), 0.25 mM (.smallcircle.), or 1 mM (.quadrature.) ManNGcPA, and in cultures treated with 0.25 mM (.tangle-solidup.) or 1 mM (Δ) glucose pentaacetate.
NG108-15 cells were maintained in Dulbecco's modified Eagle's medium (high glucose formulation) containing 5% iron-enriched calf serum, 100 μM hypoxanthine, 16 μM thymidine, and 5 μM aminopterin. […] Both cell types were cultured at 37° C. in a humidified atmosphere of 90% air/10% CO2. For treatment with sialic acid precursors, mannosamine derivatives were diluted into the appropriate medium and filter sterilized. […] In experiments testing ManNGcPA, all cells (control and experimental) were grown in the presence of 0.5% (v/v) DMSO, the carrier for ManNGcPA.

## CC(=O)OCC(=O)N[C@@H]1C(OC(C)=O)O[C@H](COC(C)=O)[C@@H](OC(C)=O)[C@@H]1OC(C)=O (some centres unmarked) [ManNGcPA, N-glycolylmannosamine pentaacetate]
MAG-Fc chimera; 0.25 mM or 1 mM, 96 h
  inhibition of MAG-Fc binding: ≈ 70%
MAG-Fc chimera; 1 mM, 144 h, compared to control cells
  inhibition of specific binding of MAG-Fc: 95%
NG108-15 cells
  O-acetylated NeuGc in the precursor pool: no significant proportion of O-acetylated NeuGc
  de-O-acetylation prior to or coordinate with metabolism to sialic acid: apparently complete de-O-acetylation
In vitro
  viability at 70 h, 1000 µM: 76%
